The source made the active and inactive calls. No rule for the calls is given here.
Assays:
[1] = vps1Δ single mutant yeast growth suppression – S. cerevisiae, background strain comparison, dose response (AID 790); conditions: S. cerevisiae vps1Δ mutant growth inhibition; measured here: background strain growth inhibition
[2] = tested on: S. cerevisiae vps1Δ mutant growth inhibition; test: as above

Row | SMILES | IC50 [1] | IC50 [2]
1 | O=C(NCC(c1cccnc1)N1CCN(c2ccccc2)CC1)C1CCCCC1 (stereo not given) | > 10 µM | > 10 µM (inactive)
2 | COc1ccc(Cl)cc1NC(=O)C(C)N1CCN(C/C=C/c2ccccc2)CC1 (stereo not given) | 15 µM | > 10 µM (inactive)
3 | O=C(NC1CCCC1)C(c1ccsc1)N(C(=O)Cc1cccs1)c1ccc(F)cc1 (stereo not given) | > 10 µM | > 10 µM (inactive)
4 | CCOC(=O)C1CCN(Cc2cnc(Oc3ccc(Cl)cc3C)s2)CC1 | > 10 µM | > 10 µM (inactive)
5 | COc1ccc2nc(NCCCNC(=O)c3cc(OC)c(OC)c(OC)c3)c(C#N)cc2c1 | > 10 µM | > 10 µM (inactive)
6 | CCc1ccc(N(C(=O)c2csnn2)C(C(=O)NC(C)(C)C)c2ccncc2)cc1 (stereo not given) | > 10 µM | > 10 µM (inactive)
7 | O=C(NCc1ccc2c(c1)OCO2)c1ccc(-n2cnnn2)cc1 | > 10 µM | > 10 µM (inactive)
8 | CCCCC1(CCCC)C(=O)NC(=Nc2cccc(C)c2)NC1=O | > 10 µM | > 10 µM (inactive)
9 | O=C1c2ccccc2C(=O)c2c1oc(C(F)(F)F)c2C(=O)c1ccccc1 | 2.2 µM | 1.3 µM
10 | O=[N+]([O-])c1ccc(N/N=C/c2c[nH]c3ccccc23)c(S(=O)(=O)Nc2ccc(Cl)cc2)c1 | 2.5 µM | 2.47 µM
11 | O=C(COc1ccc(Cl)cc1Cl)N1CCN(C/C=C/c2ccccc2)CC1 | 7.14 µM | 13.2 µM (inactive)
12 | O=S(=O)(c1ccc(Cl)cc1)N1CCN(C2CCN(Cc3ccccc3)CC2)CC1 | > 10 µM | > 10 µM (inactive)
13 | CCOC(=O)Cc1c(C)c2ccc(N(CC)CC)cc2oc1=O | > 10 µM | > 10 µM (inactive)
14 | Cc1ccc(/C=N/n2cnc3sc(-c4ccccc4)cc3c2=O)o1 | > 10 µM | > 10 µM (inactive)
15 | COc1ccc(N2CCN(C(=O)CCNS(=O)(=O)c3ccc(Br)s3)CC2)cc1 | > 10 µM | > 10 µM (inactive)
16 | O=c1cccc2n1CC1CC2CN(S(=O)(=O)c2ccccc2)C1 (stereo not given) | > 10 µM | > 10 µM (inactive)
17 | CCC(C)(C)n1nnnc1C(c1cc2cc3c(cc2[nH]c1=O)OCO3)N1CCN(C)CC1 (stereo not given) | > 10 µM | > 10 µM (inactive)
18 | CCOc1cc(/C=C\[N+](=O)[O-])ccc1OCC(=O)Nc1ccccc1C | > 10 µM | 25.4 µM
19 | Cc1cccc2cc(C#N)c(NCCCn3ccnc3)nc12 | > 10 µM | > 10 µM (inactive)
20 | Clc1ccc2[nH]c3c(NCC4CCCO4)ncnc3c2c1 (stereo not given) | > 10 µM | > 10 µM (inactive)
21 | CCOc1cccc(C(=O)Nc2cccnc2)c1 | > 10 µM | > 10 µM (inactive)
22 | O=C(C1CCN(S(=O)(=O)c2cccs2)CC1)N1CCCCCC1 | > 10 µM | > 10 µM (inactive)
23 | CC(=O)NC1C(c2nc3ccccc3s2)=C(c2ccccc2)C(=O)N1c1ccc(C)cc1 (stereo not given) | 1.92 µM | 2.18 µM (inactive)
24 | COc1ccc(-c2cc(N)n(S(=O)(=O)c3c(F)c(F)c(F)c(F)c3F)n2)cc1OC | 1.08 µM | 2.29 µM (inactive)
25 | CC(C)Oc1ccc(/C(O)=C2/C(=O)C(=O)N(CCN(C)C)C2c2ccco2)cc1 (stereo not given) | > 10 µM | > 10 µM (inactive)
26 | O=C(C1COc2ccccc2O1)N1CCN(Cc2ccc3c(c2)OCO3)CC1 (stereo not given) | > 10 µM | > 10 µM (inactive)
27 | ON=Cc1cccn1-c1ccccc1 | > 10 µM | > 10 µM (inactive)

Row | SMILES | IC50 [1] | IC50 [2]
28 | Cc1nnc(-c2cccc(Br)c2)c2cn(-c3ccccc3)nc12 | > 10 µM | > 10 µM (inactive)
29 | Nc1c(C(=O)OCC2CCCO2)c2nc3ccccc3nc2n1-c1ccc2c(c1)OCCO2 (stereo not given) | > 10 µM | > 10 µM (inactive)
30 | O=C1OCC(CO)(CO)N=C1NNc1ccc(Cl)c(Cl)c1 | 3.35 µM | 2.43 µM
31 | O=C(NCc1ccc2c(c1)OCO2)C1CCCN1C(=O)Nc1ccccc1 (stereo not given) | > 10 µM | > 10 µM (inactive)
32 | O=C(NC1CCN(Cc2ccccc2)CC1)C1COc2ccccc2O1 (stereo not given) | > 10 µM | > 10 µM (inactive)
33 | Cc1ccc(S(=O)(=O)c2c(C)nn(C(C)(C)C)c2OC(=O)c2ccc(Br)o2)cc1 | > 10 µM | > 10 µM (inactive)
34 | O=C(CC(=O)c1cc(Cl)ccc1O)c1ccccc1 | 12.7 µM | 2.11 µM
35 | CCn1c(=O)[nH]c2cc(C(=O)N3CCN(c4ccccc4)CC3)ccc2c1=O | > 10 µM | > 10 µM (inactive)
36 | Cc1ccc(C(=O)c2c(NC(=O)c3ccncc3)sc3c2CCCC3)cc1 | > 10 µM | > 10 µM (inactive)
37 | Cc1nnc(-c2cccc(Br)c2)c2cn(-c3ccccc3Cl)nc12 | 25.9 µM | 2.01 µM
38 | Cc1ccc(S(=O)(=O)NC(CC(C)C)C(=O)Oc2ccc3c4c(c(=O)oc3c2)CCC4)cc1 (stereo not given) | > 10 µM | > 10 µM (inactive)
39 | N#Cc1nc(COc2ccc(-c3ccccc3)cc2)oc1NCCCN1CCOCC1 | 15.4 µM | 21.4 µM (inactive)
40 | COc1cccc(C(=O)N2CCN(C3CCC(c4ccccc4)CC3)CC2)c1OC (stereo not given) | 23.9 µM | 23.3 µM
41 | O=C1c2cccc3c([N+](=O)[O-])ccc(c23)C(=O)N1c1ccc(Cl)cn1 | 6.08 µM | 8.74 µM (inactive)
42 | COCCCn1c2nc3ccccc3nc2c2c(=O)n(-c3ccccc3OC)cnc21 | > 10 µM | > 10 µM (inactive)
43 | Cc1ccc(SC(=O)COc2ccc(C)c(C)c2)cc1 | > 10 µM | > 10 µM (inactive)
44 | O=C(COc1ccc(Br)cc1F)NC1CCN(Cc2ccccc2)CC1 | > 10 µM | > 10 µM (inactive)
45 | CCOC(=O)c1ccc(NC(=O)c2cn(-c3ccccc3)nc2-c2ccncc2)cc1 | 11.5 µM | > 10 µM (inactive)
46 | CCOC(=O)c1cc2c(ccn2C)n1CC(=O)N1CCN(c2ccccc2OC)CC1 | > 10 µM | > 10 µM (inactive)
47 | O=C1NC2(Nc3ccccc31)C(=O)Nc1ccccc12 (stereo not given) | > 10 µM | > 10 µM (inactive)
48 | C=C(C)C1CC=C(CN2CCC(C(=O)OCC)CC2)CC1 (stereo not given) | > 10 µM | > 10 µM (inactive)
49 | Cc1ccc(C2N(c3ccc(Cl)c(Cl)c3)C(=O)C3CCCN32)o1 (stereo not given) | > 10 µM | > 10 µM (inactive)
50 | Fc1ccc(Cn2nnc(-c3ccc(CN4CCOCC4)cc3)n2)cc1 | > 10 µM | > 10 µM (inactive)
51 | COc1ccc(Nc2nc(N)nc(CSc3nnc(N)s3)n2)cc1 | > 10 µM | > 10 µM (inactive)
52 | O=C(Nc1ccccc1)C1=C(O)CC(c2ccco2)CC1=Nc1ccccc1 (stereo not given) | > 10 µM | > 10 µM (inactive)
53 | COc1ccc(NC(=O)c2ccc(CN3CCN(c4ccccc4)CC3)cc2)cc1 | > 10 µM | > 10 µM (inactive)
54 | CC1CCCCC1NC(=O)CSc1nnnn1-c1ccccc1 (stereo not given) | > 10 µM | > 10 µM (inactive)

Row | SMILES | IC50 [1] | IC50 [2]
55 | O=C(OCn1ncc(Cl)c(Cl)c1=O)c1cccc(C(F)(F)F)c1 | 3.51 µM | 3.35 µM
56 | CCc1cc2c(=O)c(Oc3ccccc3F)c(C)oc2c(CN(C)C)c1O | > 10 µM | > 10 µM (inactive)
57 | CCN1C(=O)c2ccc(C(=O)NCc3ccccc3)cc2C1=O | > 10 µM | > 10 µM (inactive)
58 | Cc1c(Cc2ccccc2)c(=O)oc2c(C)c(OCc3nn[nH]n3)ccc12 | > 10 µM | > 10 µM (inactive)
59 | Cc1ccc(CSc2nc3ccccc3cc2C=O)cc1 | 2.1 µM | 1.99 µM
60 | Cc1ccc(N2CCN(S(=O)(=O)N3CCCCCC3)CC2)cc1Cl | > 10 µM | > 10 µM (inactive)
61 | Clc1ccc(-c2n[nH]c3c2CCC3)c(Cl)c1 | 0.518 µM | 0.219 µM
62 | O=C(c1ccc(Cl)cc1Cl)N1CCC(c2nc3c(nnn3Cc3ccco3)c(=O)[nH]2)CC1 | > 10 µM | > 10 µM (inactive)
63 | CC1CCCCN1CCNC(=O)Cn1nc(-c2ccccc2)ccc1=O (stereo not given) | > 10 µM | > 10 µM (inactive)
64 | CCCCC(=O)Nc1nc(C)c(-c2csc(Nc3ccc(Cl)cc3)n2)s1 | 6.26 µM | 6.39 µM (inactive)
65 | Cc1ccc(OCC(O)CN2CCN(Cc3ccc4c(c3)OCO4)CC2)c(C)c1 (stereo not given) | > 10 µM | > 10 µM (inactive)
66 | CN1/C(=C/C2CC(=O)NC2=O)C(C)(C)c2ccccc21 (stereo not given) | > 10 µM | > 10 µM (inactive)
67 | O=C(OCn1ncc(Br)c(Br)c1=O)c1ccc(F)cc1 | 5.38 µM | 3.91 µM
68 | COc1cccc(OCCCCN2CC(C)OC(C)C2)c1 (stereo not given) | > 10 µM | > 10 µM (inactive)
69 | COc1ccccc1N1CCN(CC(O)c2ccc3cc[nH]c3c2)CC1 (stereo not given) | > 10 µM | > 10 µM (inactive)
70 | Cc1ccc(-c2csc3nnc(SCC(=O)Nc4cccc(C)n4)n23)cc1 | > 10 µM | > 10 µM (inactive)
71 | c1ccc2c(c1)oc1c(Nc3ccc(CN4CCOCC4)cc3)ncnc12 | > 10 µM | > 10 µM (inactive)
72 | O=C(COc1ccc(Cl)cc1Cl)NCCCN1CCOCC1 | > 10 µM | > 10 µM (inactive)
73 | CCCCCCCCNc1ncnc2ccccc12 | 14.8 µM | > 10 µM (inactive)
74 | CCCCCOc1ccc(CN2CCOCC2)cc1Cl | > 10 µM | > 10 µM (inactive)
75 | O=C(NCc1ccco1)C(c1cccs1)N(C(=O)Cc1cccs1)c1ccccc1 (stereo not given) | > 10 µM | > 10 µM (inactive)
76 | O=C(c1ccco1)N1CCN=C1SCc1cccnc1 | > 10 µM | > 10 µM (inactive)
77 | COc1ccc(C2=NC(C(F)(F)F)(C(F)(F)F)c3c(n(C)c(=O)n(C)c3=O)N2)cc1 | > 10 µM | > 10 µM (inactive)
78 | O=c1c2c3c(sc2ncn1/N=C/c1ccc([N+](=O)[O-])o1)CCCC3 | 1.59 µM | 2.19 µM (inactive)
79 | CCC(C)(C)NC(=O)CN(C(=O)CCC(=O)Nc1ccccn1)c1ccc(F)c(Cl)c1 | > 10 µM | > 10 µM (inactive)
80 | Cc1cccc(CS(=O)(=O)Cc2ccc(C(=O)NCCCN3CCCC3)o2)c1 | > 10 µM | > 10 µM (inactive)

From PubChem BioAssay AID790 (SRMLSC, 2007)
